According to patent US12318452B2, “Degraders of WEE1 kinase” (DANA-FARBER CANCER INSTITUTE, INC., priority 2018, dated 2025):

Tested on: MOLT4 proteome
Assay: Multiplexed quantitative mass spectrometry-based proteomics in MOLT4 cells
Format: cell-based, human
Conditions: 100 nM
Procedure: MOLT4 cells were treated with DMSO or 100 nM of compound 13 for 2 or 4 hours in biological triplicates and lenalidomide in biological duplicates for 4 hours and cells were harvested by centrifugation. Lysis buffer (8 M Urea, 50 mM NaCl, 50 mM 4-(2hydroxyethyl)-1-piperazineethanesulfonic acid (EPPS) pH 8.5, Protease and Phosphatase inhibitors from Roche) was added to the cell pellets and homogenized by 20 passes through a 21 gauge (1.25 in. long) needle to achieve a cell lysate with a protein concentration between 1-4 mg mL^−1. A micro-BCA assay (Pierce™) was used to determine the final protein concentration of protein in the cell lysate. 200 μg of protein for each sample were reduced and alkylated as previously described in Donovan et al., Elife 7:e38430 (2018).
Proteins were precipitated using methanol/chloroform. In brief, four volumes of methanol were added to the cell lysate, followed by one volume of chloroform, and finally three volumes of water. The mixture was vortexed and centrifuged to separate the chloroform phase from the aqueous phase. The precipitated protein was washed with three volumes of methanol, centrifuged and the resulting washed precipitated protein was allowed to air dry. Precipitated protein was resuspended in 4 M Urea, 50 mM HEPES pH 7.4, followed by dilution to 1 M urea with the addition of 200 mM EPPS, pH 8. Proteins were first digested with LysC (1:50; enzyme: protein) for 12 hours at room temperature. The LysC digestion was diluted down to 0.5 M Urea with 200 mM EPPS pH 8 and then digested with trypsin (1:50; enzyme:protein) for 6 hours at 37° C. Tandem mass tag (TMT) reagents (Thermo Fisher Scientific) were dissolved in anhydrous acetonitrile (ACN) according to manufacturer instructions. […] The sample channels were combined at a 1:1:1:1:1:1:1:1:1:1:1 ratio, desalted using C18 solid phase extraction cartridges (Waters®) and analyzed by LC-MS for channel ratio comparison. Samples were then combined using the adjusted volumes determined in the channel ratio analysis and dried down in a speed vacuum. […]

For `C=CCn1c(=O)c2cnc(Nc3ccc(N4CCN(CCCNc5cccc6c5C(=O)N(C5CCC(=O)NC5=O)C6=O)CC4)cc3)nc2n1-c1cccc(C(C)(C)O)n1` (stereo not drawn) [Compound 13, 4-((3-(4-(4-((2-allyl-1-(6-(2-hydroxypropan-2-yl)pyridin-2-yl)-3-oxo-2,3-dihydro-1H-pyrazolo[3,4-d]pyrimidin-6-yl)amino)phenyl)piperazin-1-yl)propyl)amino)-2-(2,6-dioxopiperidin-3-yl)isoindoline-1,3-dione], the “ZFP91 degradation by proteomics” value was “low levels of ZFP91 degradation”, the “PLK1 downregulation by proteomics” value (2 hours) was “No downregulation of PLK1” and the “Wee1 abundance Log2FC” value (2 hours) was −1.97.
